Experimental data from patent US4634692A, “Synthesis of 1α,25-dihydroxy-24R-fluorocholecalciferol and 1α,25-dihydroxy-24S-fluorocholecalciferol” (Hoffmann-La Roche Inc., priority 1984, dated 1987).
Values joined by “and” are separate entries in the source; they are usually repeats but may differ in a detail not shown here. Identical values can stand only once. “Also recorded” adds a separate entry of the source. Like-named read-outs stand apart in the source and are kept apart here.

Legend:
[1] = system: vitamin D-deficient chicks; assay: Anti-rachitogenic activity in chicks (tibia ash weight); format: in vivo, chick (White Leghorn cockerels); details: for Mean tibia ash weight ± S.E.: 21 days oral dosing, 9-10 chicks per group, vehicle 120.9 ± 8.3
Method: One-day-old White Leghorn cockerels are placed on a vitamin D-deficient diet which contains 1% calcium and 0.7% phosphorous and are housed under ultraviolet-free lighting (General Electric F40G0 gold fluorescent lights). Compounds are dissolved in propylene glycol and administered orally in a volume of 0.2 ml for 21 consecutive days to chicks which are one to two days of age at the start of treatment. Controls are treated with vehicle alone. Compounds are prepared in amber flasks and the solutions are flushed with argon and refrigerated after each dosing period. Chicks are autopsied on the day after the last treatment day. Blood is collected for determination of serum calcium and phosphorus and tibia dry weight and ash weight are determined. Usually, ten chicks are used for each treatment group and for the control group. The results of the 1α,25-dihydroxy-24R-fluorocholecalciferol anti-rachitogenic activity assay are shown in Table I along with comparative data showing the anti-rachiotogenic activity of 24,24-difluoro 1α,25-dihydroxycholecalciferol.

[2] = system: EHDP-Induced Mineralization Block; assay: Prevention of EHDP-induced mineralization block in rats (tibial epiphyseal plate width); format: in vivo, rat (Charles River CD male); details: 10 days; for Mean tibial epiphyseal plate width: with EHDP
Method: Charles River CD male rats are treated for 10 consecutive days. Rats are 21 days of age at the start of treatment. Ethane-1-hydroxy-1,1-diphosphonate (EHDP) is given subcutaneously on each treatment day at a dose of 3 mg/0.2 ml/rat in distilled water. Test compounds are administered orally on each treatment day in propylene glycol (0.2 ml/rat). Rats are autopsied on the day after the last treatment day and tibias are processed by a modified von Kossa procedure based upon silver impregnation of bone salts. Epiphyseal plate widths are measured with a micrometer ocular using standard microscopic magnification (35×). Activity is based upon dose-dependent narrowing of the widened epiphyseal plate induced by EHDP. Ten rats are used in each treatment group. Positive (EHDP alone) and negative (vehicles alone) control groups of ten rats each are included in each experiment.

[3] = Pharmacokinetics in dogs, plasma half-life after intravenous administration; details: dog, in vivo, 0.0003 mg/kg
Method: The plasma level profiles of 1α,25-dihydroxy-24R-fluorocholecalciferol and 1α,25-dihydroxycholecalciferol are compared in the dog after a single intraveneous dose. Each compound is studied in four dogs with a two-week "washout" period between compounds. The compounds are administered intravenously as solutions (2.5 mg/ml) in propylene glycol at a dose level of 0.3 μg/kg. At selected time points 5 ml of heparinized blood are collected, placed in ice and centrifuged in the cold. Plasma is separated and frozen immediately.
Plasma concentrations are determined by procedures routinely employed for the measurements of circulating levels of 1α,25-dihydroxycholecalciferol.

[4] = system: intestinal calcium absorption; assay: Intestinal calcium absorption in vitamin D-deficient chicks (serum 45Ca); format: in vivo, chick (Leghorn cockerels)
Method: While Leghorn one-day-old cockerels are placed on a vitamin D-deficient diet and are housed under ultraviolet-free lighting for 21 days. Chicks are then used to determine the effects of test compounds on intestinal calcium absorption. A single oral dose of test compound dissolved in propylene glycol is administered. At various times after dosing, 2 uCi of ^45 Ca (chloride) is given orally, and serum radioactivity is measured 45 minutes after administration of the isotope. Ten chicks are used in each treatment and control group and vehicle-treated controls are included at each time period.

[5] = 2.5 picomoles/rat/day p.o., vehicles 447, EHDP alone 1502
[6] = 7.5 picomoles/rat/day p.o., vehicles 416, EHDP alone 1390
[7] = 25 picomoles/rat/day p.o., vehicles 435, EHDP alone 1684
[8] = 75 picomoles/rat/day p.o., vehicles 448, EHDP alone 1332
[9] = 250 picomoles/rat/day p.o., vehicles 428, EHDP alone 1385

half-life [3]	Structure (SMILES)	Mean tibia ash weight ± S.E. ([1]; 3 ng/chick/day)	Mean tibia ash weight ± S.E. ([1]; 10 ng/chick/day)	Mean tibia ash weight ± S.E. ([1]; 30 ng/chick/day)	Mean tibial epiphyseal plate width, EHDP alone (positive control) ([2]; EHDP 3 mg/0.2 ml/rat s.c., control groups of the 2.5, 7.5, 25, 75, 250 pmol)	half-life ([3]; 0.3 mcg/kg, i.v., dogs, read-out: Plasma half-life (converted))	Mean tibial epiphyseal plate width [2, 5]	Mean tibial epiphyseal plate width [2, 6]	Mean tibial epiphyseal plate width [2, 7]	Mean tibial epiphyseal plate width [2, 8]	Mean tibial epiphyseal plate width [2, 9]	Serum 45Ca ([4]; 24 hr after single oral dose, vehicle 408 ± 30, *** statistically significant)	Serum 45Ca ([4]; 48 hr after single oral dose, vehicle 439 ± 30, not statistically significant)	Serum 45Ca ([4]; 72 hr after single oral dose, vehicle 398 ± 31, not statistically significant)	Duration of activity in stimulation of intestinal calcium absorption versus 1α,25-dihydroxycholecalciferol (in words) ([4]; single oral 100 nanogram dose)	Prevention of EHDP-induced mineralization block (in words) ([2]; oral, rats)	Anti-rachitogenic activity (in words) ([1]; oral, 21 consecutive days)
–	C=C1/C(=C\C=C2/CCC[C@]3(C)[C@@H]([C@H](C)CCC(F)(F)C(C)(C)O)CC[C@@H]23)C[C@@H](O)C[C@@H]1O [24,24-difluoro 1α,25-dihydroxycholecalciferol, reference compound]	192.2 ± 6.2 mg	258.6 ± 10.0 mg	229.8 ± 14.2 mg	–	–	–	–	–	–	–	–	–	–	–	–	–
–	CC(O)(P(=O)(O)O)P(=O)(O)O [EHDP, Ethane-1-hydroxy-1,1-diphosphonate]	–	–	–	1502 Micra and 1390 Micra and 1684 Micra and 1332 Micra and 1385 Micra	–	–	–	–	–	–	–	–	–	–	–	–
–	C=C1/C(=C\C=C2/CCC[C@]3(C)[C@@H]([C@H](C)CCCC(C)(C)O)CC[C@@H]23)C[C@@H](O)C[C@@H]1O [1α,25-dihydroxycholecalciferol]	–	–	–	–	3.6 h	1365 Micra	1240 Micra	1103 Micra	922 Micra	839 Micra	–	–	–	–	–	–
14.4 h	C=C1/C(=C\C=C2/CCC[C@]3(C)[C@@H]([C@H](C)CC[C@@H](F)C(C)(C)O)CC[C@@H]23)C[C@@H](O)C[C@@H]1O [[1α,3β,5Z,7E,24R]-24-fluoro-9,10-secocholesta-5,7,10(19)-trien-1,3,25-triol]	293.3 ± 4.8 mg	330.4 ± 7.7 mg	337.9 ± 10.6 mg	–	–	1302 Micra	1031 Micra	1040 Micra	864 Micra	783 Micra	793 ± 73 CPM/0.2 ML	520 ± 38 CPM/0.2 ML	372 ± 39 CPM/0.2 ML	comparable to that of 1α,25-dihydroxycholecalciferol	has shown activity in the test for the prevention of EHDP-Induced Mineralization Block in rats; also recorded: narrows the widening of the epiphyseal plate induced by EHDP	has shown activity in the anti-rachitogenic test in chicks; also recorded: possesses potent anti-rachitogenic activity
